Where two headings read alike, the source gives them in different places.
Experiments:
human whole blood = assay: LPS-stimulation of human whole blood, TNF-α release; format: cell-based
Method: Whole blood was taken by venous puncture using heparinised vacutainers (Becton Dickinson) and diluted in an equal volume of RPMI1640 tissue culture media (Sigma). 100 μl was plated in V-bottomed 96 well tissue culture treated plates. 2 hours after the addition of the inhibitor in 100 μl of RPMI1640 media, the blood was stimulated with LPS (E coli strain 005:B5, Sigma) at a final concentration of 100 ng/ml and incubated at 37° C. in 5% CO2 for 6 hours. TNF-α levels were measured from cell-free supernatants by sandwich ELISA (R&D Systems #QTA00B). Human heparinised blood (17-IU/ml) was diluted with an equal volume of RPMI-1640 and then sub-aliquoted into 96 well microtitre wells (100 µl/well). Inhibitors of IKKβ that had been serially diluted in RPMI-1640 were added to the wells (100 µl/well) to give a range of final concentrations (5-10000 nM). After incubation for 2 hours at 37° C., TNF[…] production was stimulated for 6 hours at 37° C. by the addition of 10 µl of LPS (E Coli 055:B5) to give a final concentration of 100 ng/ml. Plates were then centrifuged for 3 minutes at 800 g and TNF[…] present in the supernatant then measured, using a QuantiGlo Chemiluminescent ELISA (R&D Systems). The human whole blood assay measures the ability of the compounds to inhibit the LPS stimulated production of TNF alpha in human blood cells mediated by IKKβ in a physiologically relevant setting.

IKBKB (IKK-β) = molecular target: T1, IKBKB (IKK-β) (Homo sapiens, UniProt O14920); assay: IKKβ enzyme assay (Z'-LYTE, Invitrogen); format: biochemical
T1 construct: purchased Invitrogen (Paisley, UK)
T1 sequence (O14920 1-756): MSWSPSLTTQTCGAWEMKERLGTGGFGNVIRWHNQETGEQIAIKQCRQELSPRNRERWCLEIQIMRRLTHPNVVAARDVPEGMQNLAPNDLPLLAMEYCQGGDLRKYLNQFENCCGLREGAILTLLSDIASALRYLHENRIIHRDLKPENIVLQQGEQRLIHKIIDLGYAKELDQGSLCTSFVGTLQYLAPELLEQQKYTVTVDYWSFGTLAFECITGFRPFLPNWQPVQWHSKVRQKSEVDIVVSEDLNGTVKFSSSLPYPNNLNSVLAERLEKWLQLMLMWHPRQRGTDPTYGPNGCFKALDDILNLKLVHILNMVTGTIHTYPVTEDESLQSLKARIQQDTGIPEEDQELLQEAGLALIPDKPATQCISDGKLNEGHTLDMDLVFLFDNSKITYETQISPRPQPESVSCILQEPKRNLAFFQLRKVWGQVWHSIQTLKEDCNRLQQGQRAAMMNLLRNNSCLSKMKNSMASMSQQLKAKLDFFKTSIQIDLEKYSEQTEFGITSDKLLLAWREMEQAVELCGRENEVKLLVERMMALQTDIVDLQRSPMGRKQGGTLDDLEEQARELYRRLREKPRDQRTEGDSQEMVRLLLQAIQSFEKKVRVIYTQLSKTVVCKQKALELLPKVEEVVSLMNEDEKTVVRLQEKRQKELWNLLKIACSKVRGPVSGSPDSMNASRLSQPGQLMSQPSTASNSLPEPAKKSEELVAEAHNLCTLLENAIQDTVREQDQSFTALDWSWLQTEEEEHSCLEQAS
Method: The ability of compounds to inhibit IKK-β kinase activity was measured in an assay performed by Invitrogen (Paisley, UK). The Z′-LYTE™ biochemical assay employs a fluorescence-based, coupled-enzyme format and is based on the differential sensitivity of phosphorylated and non-phosphorylated peptides to proteolytic cleavage. The peptide substrate is labelled with two fluorophores—one at each end—that make up a FRET pair. In the primary reaction, the kinase transfers the gamma-phosphate of ATP to a single serine or threonine residue in a synthetic FRET-peptide. In the secondary reaction, a site-specific protease recognizes and cleaves non-phosphorylated FRET-peptides. Phosphorylation of FRET-peptides suppresses cleavage by the Development Reagent. Cleavage disrupts FRET between the donor (i.e. coumarin) and acceptor (i.e. fluorescein) fluorophores on the FRET-peptide, whereas uncleaved, phosphorylated FRET-peptides maintain FRET. A […] method, which calculates the ratio (the Emission Ratio) of donor emission to acceptor emission after excitation of the donor fluorophore at 400 nm, is used to quantitate reaction progress.
The final 10 μL Kinase Reaction consists of 0.9-8.0 ng IKBKB (IKK-β), 2 μM Ser/Thr 05 Peptide and ATP in 50 mM HEPES pH 7.5, 0.01% BRIJ-35, 10 mM MgCl2, 1 mM EGTA. The assay is performed at an ATP concentration at, or close to the Km. After the 60 minute Kinase Reaction incubation at room temperature, 5 μL of a 1:128 dilution of Development Reagent is added. The assay plate is incubated for a further 60 minutes at room temperature and read on a fluorescence plate reader.
Duplicate data points are generated from a ⅓ log dilution series of a stock solution of test compound in DMSO. Nine dilutions steps are made from a top concentration of 10 μM, and a ‘no compound’ blank is included. Data is collected and analysed using XLfit software from IDBS. The dose response curve is curve fitted to model number 205 (sigmoidal dose-response model). From the curve generated, the concentration giving 50% inhibition is determined and reported.

THP-1 cells = assay: LPS-stimulation of THP-1 cells, TNF-α release; format: cell-based; settings: Homo sapiens, LPS 1 μg/ml, 6 hours, IC50 range, read-out: Inhibitor activity versus THP-1 TNFα release
Method: THP-1 cells were plated in 100 μl at a density of 4×10^4 cells/well in V-bottomed 96 well tissue culture treated plates and incubated at 37° C. in 5% CO2 for 16 hours. 2 hours after the addition of the inhibitor in 100 μl of tissue culture media, the cells were stimulated with LPS (E coli strain 005:B5, Sigma) at a final concentration of 1 μg/ml and incubated at 37° C. in 5% CO2 for 6 hours. TNF-α levels were measured from cell-free supernatants by sandwich ELISA (R&D Systems #QTA00B).

[1] = LPS 100 ng/ml, 6 hours, IC50 range, read-out: Inhibitor activity versus human whole blood TNFα release
[2] = ATP at or close to Km, IC50 range, read-out: Inhibitor activity versus IKKβ
[3] = LPS stimulated TNF alpha production, read-out: IC50 in Human whole blood
[4] = read-out: Enzyme IC50 (nM) vs IKKβ

IC50 (human whole blood; [1]) [nM] | IC50 (IKBKB (IKK-β); [2]) [nM] | IC50 (THP-1 cells) [nM] | IC50 (human whole blood; [3]) [nM] | IC50 (IKBKB (IKK-β); [4]) [nM] | Structure (SMILES)
> 1000 | < 500 | < 500 | – | – | CC(C)(C)OC(=O)C(C)(C)NCc1cccc(-c2cc(C(N)=O)c(NC(N)=O)s2)c1 [Example 2, tert-Butyl N-{3-[4-carbamoyl-5-(carbamoylamino)-2-thienyl]benzyl}-2-methylalaninate]
< 500 | 500 to 1000 | 500 to 1000 | – | – | CC(C)(NCCc1cccc(-c2cc(C(N)=O)c(NC(N)=O)s2)c1)C(=O)OC1CCCC1 [Example 6, Cyclopentyl N-(2-{3-[4-carbamoyl-5-(carbamoylamino)-2-thienyl]phenyl}ethyl)-2-methylalaninate]
< 500 | < 500 | < 500 | 140 | 132 | CC(C)(NCc1cccc(-c2cc(C(N)=O)c(NC(N)=O)s2)c1)C(=O)OC1CCCC1 [Example 1, Cyclopentyl N-{3-[4-carbamoyl-5-(carbamoylamino)-2-thienyl]benzyl}-2-methylalaninate]
> 1000 | > 1000 | < 500 | – | – | CCC(CC)(NCc1cccc(-c2cc(C(N)=O)c(NC(N)=O)s2)c1)C(=O)OC1CCCC1 [Example 4, Cyclopentyl 2-({3-[4-carbamoyl-5-(carbamoylamino)-2-thienyl]benzyl}amino)-2-ethylbutanoate]
> 1000 | < 500 | > 1000 | – | – | CC(C)(NC(=O)c1cccc(-c2cc(C(N)=O)c(NC(N)=O)s2)c1)C(=O)OC1CCCC1 [Example 3, Cyclopentyl N-{3-[4-carbamoyl-5-(carbamoylamino)-2-thienyl]benzoyl}-2-methylalaninate]
> 1000 | > 1000 | < 500 | – | – | CC(C)(NCc1ccc2cc(-c3cc(C(N)=O)c(NC(N)=O)s3)ccc2c1)C(=O)OC1CCCC1 [Example 7, Cyclopentyl N-({6-[4-carbamoyl-5-(carbamoylamino)-2-thienyl]-2-naphthyl}methyl)-2-methylalaninate]
– | – | – | 489 | 5 | NC(=O)Nc1sc(-c2ccccc2)cc1C(N)=O [Compound I, reference compound]
– | < 500 | – | – | – | CC(C)(NCc1cccc(-c2cc(C(N)=O)c(NC(N)=O)s2)c1)C(=O)O [Example 8, N-{3-[4-Carbamoyl-5-(carbamoylamino)-2-thienyl]benzyl}-2-methylalanine]
500 to 1000 | < 500 | > 1000 | – | – | CC(C)(NCc1ccc(-c2cc(C(N)=O)c(NC(N)=O)s2)cc1)C(=O)OC1CCCC1 [Example 5, Cyclopentyl N-{4-[4-carbamoyl-5-(carbamoylamino)-2-thienyl]benzyl}-2-methylalaninate]
– | < 500 | – | – | – | CC(C)(NCCc1cccc(-c2cc(C(N)=O)c(NC(N)=O)s2)c1)C(=O)O [Example 10, N-(2-{3-[4-carbamoyl-5-(carbamoylamino)-2-thienyl]phenyl}ethyl)-2-methylalanine]
– | < 500 | – | – | – | CC(C)(NC(=O)c1cccc(-c2cc(C(N)=O)c(NC(N)=O)s2)c1)C(=O)O [Example 9, N-{3-[4-Carbamoyl-5-(carbamoylamino)-2-thienyl]benzoyl}-2-methylalanine]
– | < 500 | – | – | – | CC(C)(NCc1ccc2cc(-c3cc(C(N)=O)c(NC(N)=O)s3)ccc2c1)C(=O)O [Example 11, N-({6-[4-carbamoyl-5-(carbamoylamino)-2-thienyl]-2-naphthyl}methyl)-2-methylalanine]
